Holding throughout (assay): NCI anticancer screen, dose series, 48 h
For assay [1], the system named is MALME-3M melanoma.
Assay [2] concerns HCT-15 colon.
Assay [3] has as its system RXF 393 renal.
Assay [4] deals with A498 renal.
Assay [5] deals with SN12C renal.
Assay [6] concerns SNB-19 CNS.
The subject of assay [7] is HOP-92 NSCLC.
Assay [8] deals with DU-145 prostate.
In assay [9] the test system is OVCAR-8 ovarian.
Assay [10] has as its system TK-10 renal.

Where “and” joins values, the source holds several entries; their conditions need not be identical. Equal entries are not always repeated.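 1) Cells in 96-well plates. 2) Compound, 48 h, 5 concentrations. 3) Linear interpolation between surrounding doses. 4) Unreached endpoint = highest concentration. GI50: concentration for 50% inhibition of growth. Definition used: TGI = concentration required for complete inhibition of growth.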

With `NC(=O)C/C=C/CC(N)=O`, the TGI in assay [1], in assay [2], in assay [3], in [4], in [5] and in assay [6] was above 100 µM each time. The TGI in assay [7], in assay [8], in assay [9] and in assay [10] was above 100 µM each time.
`COc1ccc(CCNc2nc3ccccc3c3[nH]c4ccccc4c23)cc1OC`: the GI50 was 1.5 µM in assay [1]; 2.86 µM in assay [2]; 1.47 µM in assay [3]; 2.75 µM in assay [4]; 3.58 µM in assay [5]; 3.84 µM in assay [6]. The GI50 is 2.43 µM in assay [7], 3.85 µM in assay [8], 2.02 µM in assay [9] and 4.47 µM in [10]. Moreover, the TGI was 3.15 µM in assay [1]; 10.4 µM in assay [2]; 3.15 µM in [3]; 9.48 µM in assay [4]; 16.5 µM in assay [5]; 15.4 µM in assay [6]. Also, the TGI in assay [7] came out at 8 µM; in assay [8], 15.8 µM; in [9] it was 5.54 µM; in assay [10], 17 µM.
Regarding `CCOC(=O)c1cc2c(n1Cc1cccc(OC)c1)-c1oncc1CC2`, the GI50 in assay [1] was 0.571 µM; in assay [2], 0.521 µM; in assay [3], 1.72 µM; in assay [4], 0.156 µM; in [5], 13.5 µM; in [6] it was 4.72 µM. The GI50 was 10.5 µM in assay [7], 2.27 µM in assay [8], 10.3 µM in assay [9] and 7.51 µM in [10]. Also, the TGI in [1] was 76.5 µM; in [2], above 100 µM; in [3] it was 35.9 µM; in assay [4] it was 3.39 µM; in assay [5], above 100 µM; in assay [6] it was above 100 µM. Also, the TGI in [7], in [8], in [9] and in assay [10] was above 100 µM in each case.
Regarding `CCOP1(=O)OCC2OC(n3cnc4c(N)ncnc43)C(O)C2O1` (centres undefined), the TGI in [1], in [2], in assay [3], in assay [4], in [5] and in assay [6] was above 100 µM throughout. For the same compound, the TGI in assay [7], in assay [8], in assay [9] and in assay [10] was above 100 µM each time.
As to `Nc1nc2nc3c(nc2c(=O)[nH]1)CN(c1ccc(C(=O)O)cc1)C3=O`, the TGI in assay [1], in assay [2], in assay [3], in assay [4], in assay [5] and in [6] was above 100 µM in each case. For the same compound, the TGI in assay [7], in assay [8], in [9] and in [10] was above 100 µM in each case.
In the case of `CCN(CC)CCn1c(=N)n(CC(O)c2ccc(Cl)c(Cl)c2)c2ccccc21` (centres undefined), the GI50 is 2.23 µM in [1]; 4.02 µM in assay [2]; 2.8 µM in [3]; 3.07 µM in [4]; 8.79 µM in assay [5]; 13.5 µM in assay [6]. The GI50 is 2.73 µM in assay [7], 13.9 µM in assay [8], 12.1 µM in assay [9] and 14.1 µM in assay [10]. Also, the TGI in [1] worked out at 4.44 µM; in assay [2] it was 15.1 µM; in assay [3], 10.9 µM; in [4], 15.6 µM; in assay [5], 24.2 µM; in assay [6], 28.8 µM. Further, the TGI in assay [7] was 13.1 µM; in assay [8], 26.8 µM; in assay [9], 25.5 µM; in assay [10], 27.1 µM.
Take `COc1ccc(C(=O)CC2(O)C(=O)Nc3c(Cl)ccc(Cl)c32)cc1` (centres undefined): the GI50 in assay [1] was 8.96 µM; in assay [2], 0.885 µM; in [3], 3.07 µM; in assay [4], 0.599 µM; in assay [5], 4.6 µM; in [6] it was 4.68 µM. Also, the GI50 in assay [7] was 1.22 µM; in assay [8], 3.44 µM; in assay [9] it was 3.62 µM; in [10], 8.98 µM. The TGI is above 100 µM in assay [1]; 86.4 µM in assay [2]; above 100 µM in assay [3]; 7.02 µM in assay [4]; above 95.1 µM in assay [5]; above 100 µM in assay [6]. Besides, the TGI in [7] is 18.4 µM; in assay [8], above 37.6 µM; in assay [9], 60.3 µM; in assay [10] it was above 100 µM.
For the compound `COc1cc([C@@H]2c3cc4c(cc3[C@H](OC3OC5COC(c6ccccc6)OC5C(O)C3O)[C@H]3COC(=O)[C@H]23)OCO4)cc(OC)c1OC` (some centres undefined), the GI50 in assay [1] was 1.17 µM; in assay [2], 0.281 µM; in assay [3], 0.264 µM; in assay [4], 0.364 µM; in assay [5] it was 0.368 µM; in assay [6] it was 0.405 µM. Also, the GI50 is 2.73 µM in assay [7], 0.324 µM in [8], 0.355 µM in assay [9] and 1.13 µM in assay [10]. Further, the TGI was 4.89 µM in [1]; 13.7 µM in [2]; 0.879 µM in [3]; 3.4 µM in [4]; 20.6 µM in [5]; 16 µM in [6]. For the same compound, the TGI in [7] was determined as 18.8 µM; in assay [8], 2.04 µM; in [9] it was 2.12 µM; in assay [10], 5.51 µM.
Consider `COC1CC(OC2OC(CO)C(O)C(O)C2O)/C(=C\C#N)C(O)C1OC` (centres undefined), for which the TGI in [1], in assay [2], in assay [3], in [4], in assay [5] and in [6] was above 100 µM throughout. In addition, the TGI in assay [7], in assay [8], in assay [9] and in assay [10] was above 100 µM each time.
With `O=C(Nc1ccc(Cl)cc1)NS(=O)(=O)c1ccc2c(c1)CCC2`, the GI50 in assay [1] was 13.7 µg/mL; in assay [2] it was 16.3 µg/mL; in [3], 2.52 µg/mL; in [4] it was 19.1 µg/mL; in assay [5], 20.3 µg/mL; in assay [6] it was 18.6 µg/mL. Moreover, the GI50 is 8.6 µg/mL in assay [7], 18.8 µg/mL in assay [9] and 21 µg/mL in [10]. The TGI in [1] is > 71.3 µM and 38.2 µg/mL; in assay [2], > 90.2 µM and 41.8 µg/mL; in [3], 79.3 µM and 22.8 µg/mL; in assay [4], > 100 µM and 38 µg/mL; in assay [5], > 100 µM and 43.1 µg/mL; in [6], > 100 µM and 53.5 µg/mL. Besides, the TGI in assay [7] was 31.5 µg/mL; in [8], 92 µM; in assay [9] it was > 100 µM and 44.2 µg/mL; in [10], > 95.4 µM and 44.5 µg/mL.
In the case of `CC(C)(O)Cn1c(=O)c(Oc2ccc(F)cc2F)cc2cnc(NC3CCOCC3)nc21`, the GI50 was above 25 µM in assay [1]; above 25 µM in assay [2]; above 25 µM in assay [3]; above 14.7 µM in [4]; above 25 µM in assay [5]; above 25 µM in assay [6]. For the same compound, the GI50 was 7.79 µM in assay [7], above 25 µM in [8], above 25 µM in assay [9] and above 25 µM in assay [10]. In addition, the TGI in [1], in assay [2], in assay [3], in assay [4], in assay [5] and in [6] was above 25 µM each time. In addition, the TGI in [7], in [8], in assay [9] and in assay [10] was above 25 µM each time.
Regarding `COc1ccc(C(=O)c2cc3c(N)c(C(=O)Nc4cccc(Cl)c4)sc3nc2C)cc1`, the GI50 in [1] was 1.28 µM; in assay [2] it was 1.32 µM; in assay [3], 0.655 µM; in assay [4] it was 0.821 µM; in assay [5], 1.96 µM; in assay [6] it was 1.46 µM. For the same compound, the GI50 in assay [7] is 30.7 µM; in assay [8], 1.26 µM; in [9], 1.89 µM; in assay [10] it was above 33.3 µM. Moreover, the TGI is above 33.3 µM in [1]; above 33.3 µM in assay [2]; 2.08 µM in assay [3]; above 33.3 µM in assay [4]; above 33.3 µM in assay [5]; above 33.3 µM in [6]. Moreover, the TGI in assay [7], in [8], in assay [9] and in assay [10] was above 33.3 µM each time.
For `Cc1ccc(CCC(=O)Nc2ncc(Cc3cc(Cl)ccc3Cl)s2)o1`, the GI50 in assay [1] was 0.945 µM; in assay [2] it was 0.0546 µM; in assay [3], 0.256 µM; in assay [4] it was 0.171 µM; in [5] it was 0.489 µM; in assay [6] it was 0.33 µM. Further, the GI50 in assay [7] was 2.33 µM; in assay [8], 0.351 µM; in assay [9], 0.432 µM; in [10] it was 2.81 µM. The TGI is above 100 µM in assay [1]; above 100 µM in [2]; 1.75 µM in assay [3]; 0.801 µM in assay [4]; 11.1 µM in assay [5]; 5.45 µM in [6]. Besides, the TGI in assay [7] was above 45.3 µM; in assay [8] it was above 32.9 µM; in assay [9], above 26.1 µM; in assay [10], above 66.5 µM.
`C=C1C(=O)OC(CCCCCCCC)C1C(=O)O` (centres undefined): the GI50 in assay [1] was 11.9 µM; in [2], 15.9 µM; in assay [3] it was 10.7 µM; in assay [4], 17.4 µM; in assay [5], 14.3 µM; in assay [6], 17 µM. For the same compound, the GI50 was 12.1 µM in [7], 15.2 µM in assay [8], 19.4 µM in assay [9] and 18.9 µM in assay [10]. Moreover, the TGI in [1] amounted to 27.3 µM; in assay [2], 30.8 µM; in assay [3], 23.2 µM; in [4] it was 33.3 µM; in assay [5], 28.5 µM; in assay [6], 32.1 µM. Also, the TGI stood at 25.4 µM in [7], 30.1 µM in [8], 45.9 µM in [9] and 33.6 µM in assay [10].
On to `CC(C)Oc1cc(OCC(=O)O)cc(C(=O)N(CCC(N)=O)C(=O)Nc2ccc(C(=O)O)cc2OC(C)C)c1`, for which the GI50 in assay [1], in assay [2], in assay [3], in assay [4], in assay [5] and in assay [6] was above 100 µM in each case. Further, the GI50 in assay [7], in assay [8], in [9] and in assay [10] was above 100 µM in each case. For the same compound, the TGI in assay [1], in assay [2], in [3], in assay [4], in assay [5] and in assay [6] was above 100 µM each time. Moreover, the TGI in assay [7], in assay [8], in [9] and in assay [10] was above 100 µM in each case.
Regarding `Cc1nc2c(cnn2-c2ccnc3c(C(F)(F)F)cccc23)c(=O)o1`, the GI50 in assay [1], in assay [2], in assay [3], in [4], in [5] and in assay [6] was above 100 µM in each case. The GI50 in assay [7], in assay [8], in assay [9] and in assay [10] was above 100 µM each time. For the same compound, the TGI in assay [1], in [2], in assay [3], in [4], in assay [5] and in assay [6] was above 100 µM each time. Further, the TGI in assay [7], in [8], in assay [9] and in [10] was above 100 µM each time.
Regarding `O=C1CCCC1C(=O)Nc1ccc2ccccc2c1` (centres undefined), the TGI in assay [1], in [2], in assay [3], in [4], in [5] and in assay [6] was above 100 µM throughout. The TGI in assay [7], in assay [8], in assay [9] and in assay [10] was above 100 µM each time.

The record behind these values is PubChem BioAssay (NCI).
